Active and inactive are the calls of the source. How the calls were made is not given here.
What was measured:
[1] = glycosylation-insensitive luciferase reporter activation – D54 LucT cells, dry powder, set 2, counter-screen for N-linked glycosylation inhibitor project, dose response (AID 1053120); details: D54 LucT luciferase reporter (no NLG), luminescence, 24 h; at 19.5 µM (top of the series)
[2] = system: D54 LucT luciferase reporter (no NLG), luminescence, 24 h; test: as above

Structure (SMILES)	luciferase activation [1]	AC40 [2] [µM]
CCN(CC)CCCNc1nc2cc(OC)c(OC)cc2c2nc(-c3ccccc3)nn12	-33.3% (inactive)	
CN(C)S(=O)(=O)c1ccc(N2CCCC2)c(C(=O)Nc2ccccc2)c1	20% (inactive)	
Cc1cnc(NC(=O)c2cc(S(=O)(=O)N3CCCCC3)ccc2N2CCCC2)s1	50% (inactive)	
COc1ccc2c(COC(=O)c3cccc(S(=O)(=O)NCC(C)C)c3)cc(=O)oc2c1	66.7% (inactive)	
COc1ccccc1-c1nnc(SCc2ccccc2)o1		0.632
Cc1ccc(C(=O)c2cc([N+](=O)[O-])ccc2N2CCOCC2)cc1C	66.7% (inactive)	
Brc1ccc(CSc2nnc(-c3ccccc3)o2)cc1	0% (inactive)	
CN(C)S(=O)(=O)c1ccc(N2CCCC2)c(C(=O)Nc2nc3ccccc3s2)c1	0% (inactive)	
CCC1=Nc2cc(C(=O)NCCCOC)ccc2Sc2ccccc21	-33.3% (inactive)	
Cc1cc(C)cc(C(=O)N2CC(=O)Nc3ccccc32)c1	33.3% (inactive)	
CC(=O)c1cccc(NC(=O)CSc2ncc(C(=O)Nc3ccccc3)c(=O)n2C)c1	33.3% (inactive)	
CCCCOc1ccccc1C1CC(=O)NC2=C1C(=O)CCC2 (configuration not stated)	0% (inactive)	
CCn1c2ccccc2c2cc(NC(=O)c3cc(OC)c(OC)c(OC)c3)ccc21	-33.3% (inactive)	
Cc1ccc(NC(=O)c2cc(S(=O)(=O)N(C)C)ccc2N2CCCC2)cc1	0% (inactive)	
CC(=O)N[C@H]1[C@@H](O[C@@H]2OC(C[C@@H](O)C3O[C@@H](n4ccc(=O)[nH]c4=O)[C@H](O)[C@@H]3O)[C@H](O)[C@H](O)[C@H]2NC(=O)/C=C/CCCCCCCCCCC(C)C)O[C@H](CO)[C@@H](O)[C@@H]1O (some centres not stated)	-50% (inactive)	
Cc1cnc(NC(=O)c2cc(S(=O)(=O)N(C)C)ccc2N2CCC2)s1	-20% (inactive)	
COc1cccc(N2CCN(C(=O)c3ccc(CS(=O)c4ccc(C)cc4)o3)CC2)c1 (configuration not stated)	0% (inactive)	
O=C(N/N=C/c1ccc(Cl)cc1)c1sccc1OCc1ccc(F)cc1		1.6
COC(=O)c1cn(C(=O)c2ccc(OC)cc2)c2ccccc12		15.4
Cc1cc(C)nc(/N=C(\N)Nc2ccc(OCc3ccccc3)cc2)n1	-33.3% (inactive)	
CC(=O)c1ccc(Oc2cc(C)nc(-n3nc(C)cc3C)n2)cc1	0% (inactive)	

Structure (SMILES)	luciferase activation [1]	AC40 [2] [µM]
CC(=O)N1CCC(=O)c2cc3ccccc3cc21	33.3% (inactive)	
Cc1cnc(NC(=O)c2cc(S(=O)(=O)N3CCOCC3)ccc2N2CCCC2)s1	-20% (inactive)	
O=C1CCNc2cc3ccccc3cc21	-66.7% (inactive)	
Cc1[nH][nH]c(=O)c1C(c1ccc(-c2ccc(Cl)c(Cl)c2)o1)c1c(C)[nH][nH]c1=O	0% (inactive)	
CCN(CC)CCOc1ccc2c(c1)C(=NNC(=O)c1ccccn1)c1cc(OCCN(CC)CC)ccc1-2	-33.3% (inactive)	
Cc1cnc(NC(=O)c2cc(S(=O)(=O)N(C)C)ccc2N2CCCC2)s1	0% (inactive)	
O=C(Cc1ccccc1)c1nnc(-c2ccccc2)o1	33.3% (inactive)	
COc1ccc(-c2nnc(SCc3ccccc3)o2)cc1		5.12
Cc1ccc(Oc2ccc(S(=O)(=O)N3CCOCC3)cc2C(N)=O)c(-n2nc3ccccc3n2)c1	33.3% (inactive)	
O=C1CCN(Cc2ccccc2)c2cc3ccccc3cc21	0% (inactive)	
CCOc1ccc(NC(=O)c2cc(OC)nc3ccccc23)cc1	0% (inactive)	
Cc1ccc2cc(CN(CCCN(C)C)C(=O)NCc3ccccc3)c(=O)[nH]c2c1C	50% (inactive)	
COc1ccc2nc(NC(=O)c3cc(S(=O)(=O)N(C)C)ccc3N3CCCC3)sc2c1	0% (inactive)	
Cc1ccc2cc(CN(CCCN(C)C)C(=O)Nc3ccccc3)c(=O)[nH]c2c1C	0% (inactive)	
CN(C)CCCN(Cc1cc2ccccc2[nH]c1=O)C(=O)NCc1ccccc1	0% (inactive)	
Cc1cccc(C)c1OCCNC(=O)C(=O)NCc1ccco1	33.3% (inactive)	
COc1cc(C(=O)NCCOc2cc(C)cc(C)c2)cc(OC)c1OC	33.3% (inactive)	
CCOC(=O)c1ccc(Oc2cc(C)nc(SC)n2)cc1		3.39
CCN(CC)CCC(=O)Nc1cccc2c1C(=O)c1ccccc1C2=O	-33.3% (inactive)	
Cc1cc(=O)[nH]c(N/N=C/c2cc(C)n(CC(F)(F)F)c2C)n1	0% (inactive)	
Cc1csc(NC(=O)c2cc(S(=O)(=O)N(C)C)ccc2N2CCCC2)n1	50% (inactive)	

Structure (SMILES)	luciferase activation [1]	AC40 [2] [µM]
COc1cc(Nc2c3c(nc4ccccc24)CCCC3)cc(OC)c1OC	0% (inactive)	
COc1ccc2sc(NC(=O)c3cc(S(=O)(=O)N(C)C)ccc3N3CCCC3)nc2c1	-50% (inactive)	
CCCOC(=O)c1[nH]c2c(c1C)C(=O)CC(c1cccs1)C2 (configuration not stated)	50% (inactive)	
COc1ccccc1CSc1nnc(-c2ccccc2)o1		0.845
Cc1ccc(CCC(=O)Nc2ncc(Cc3cc(Cl)ccc3Cl)s2)o1	-33.3% (inactive)	
CCOC(=O)COc1cccc2c(=O)n(CC(=O)NCc3ccccc3)ccc12	0% (inactive)	
COc1ccc(NC(=O)C(=O)c2cn(CC(=O)N3CCCC3)c3ccccc23)cc1	-33.3% (inactive)	
COc1ccccc1OCC(=O)NNC(=O)c1ccoc1C	33.3% (inactive)	
CCCNS(=O)(=O)c1cccc(C(=O)OCc2cc(=O)oc3cc(OC)ccc23)c1		2.14
Cc1cc(NC(=O)CSc2nc(-c3ccco3)cc(C(F)(F)F)n2)no1	0% (inactive)	
CN(C)S(=O)(=O)c1ccc(N2CCCC2)c(C(=O)Nc2nccs2)c1	20% (inactive)	
COc1ccc(CSc2nnc(-c3ccccc3)o2)cc1	50% (inactive)	
COc1cc(-c2nnc(SCC3(c4ccc(Br)cc4)OCCO3)o2)cc(OC)c1OC		0.93
Cc1cnc(NC(=O)c2cc(S(=O)(=O)N3CCCC3)ccc2N2CCCC2)s1	-20% (inactive)	
Cc1ccc(/C=N/NC(=O)C2COc3ccccc3O2)s1 (configuration not stated)		15.3
COc1cccc2sc(NC(=O)c3cc(S(=O)(=O)N(C)C)ccc3N3CCCC3)nc12	-50% (inactive)	
C/C(=N\NC(=O)c1c([N+](=O)[O-])c(C)nn1C)c1ccc(NC(=O)C2CCCC2)cc1	0% (inactive)	
CN(C)CCCN(Cc1cc2ccccc2[nH]c1=O)C(=O)Nc1ccccc1	20% (inactive)	
CCOc1ccc(S(=O)(=O)NCc2ccccn2)cc1NC(=O)c1ccccc1F	0% (inactive)	
Nc1nc(=S)c2ncn([C@@H]3O[C@H](CO)[C@@H](O)[C@H]3O)c2[nH]1		5.19

From PubChem BioAssay AID1053120 (Broad Institute, 2014)
